These results are taken from PMC7496872 (Chemmedchem, 2020).

The target in data set [1] is T1, TLR2/1 (Homo sapiens, UniProt O60603).
T1 construct: host or cells: HEK-Blue hTLR2 cells
Description: TLR2/1 (Pam3CSK4)-induced NF-κB/AP-1 SEAP reporter in HEK-Blue hTLR2 cells. The format is cell-based. As to conditions: for TLR2-mediated NF-κB activation in primary screen, TLR2/1 (in words) / IC50: Pam3CSK4 10 ng/mL; for TLR2-mediated NF-κB activation in primary screen, TLR2/1 (in words): Figure 3A; for IC50: HEK-Blue hTLR2 cells, n=3, 95 % confidence interval in brackets; for Pam3CSK4-induced TLR2/1 response (remaining): compound at 50 μM, 1 h pre-incubation, Pam3CSK4 10 ng/mL 24 h. As to the method:
(§1) Figure 3 Inhibition of TLR2‐dependent NF‐κB activation and IL‐8 secretion. A) HEK‐Blue hTLR2 cells were pre‐incubated with CU‐CPT22 or compounds 1–6 and 9–11 for 1 h and then stimulated additionally with TLR2/1 agonist Pam3CSK4 (10 ng/mL) or TLR2/6 agonist Pam2CSK4 (1 ng/mL) for 24 h. B) HEK‐Blue hTLR2 cells were pre‐incubated with increasing concentrations of 4, 6, 9, 10 and then stimulated additionally with Pam3CSK4 or Pam2CSK4 for 24 h. Supernatants were tested for TLR2‐mediated NF‐κB/AP‐1 activity by quantification of SEAP release (OD640). C) THP‐1 macrophages were incubated with CU‐CPT22 (25 μM) or compound 6 for 1 h and afterwards stimulated with Pam3CSK4 (10 ng/mL), Pam2CSK4 (1ng/mL), LPS (10 ng/mL), flagellin (1 μg/mL), CL075 (8 μM) or ODN2006 (5 μM) for 24 h. Supernatants were analyzed for IL‐8 secretion by ELISA. Mean+SD or ±SD (n=3).
(§2) Cell culture: Human embryonic kidney (HEK)‐Blue hTLR2 cells (InvivoGen, Touluse, France) were used from passage 5 to 20. Stimulation of the cells with TLR2 agonists leads to production and secretion of NF‐κB‐inducible embryonic alkaline phosphatase (SEAP). The enzyme transforms the substrate QUANTI‐Blue (InvivoGen) into a blue dye that was detected by optical density (OD) at 640 nm as previously described.11a, 12 THP‐1 cells (DSMZ, Braunschweig, Germany) from passage 10 to 15 were cultured as previously reported.13 For the generation of THP‐1 macrophages, THP‐1 monocytes were first incubated with 25 ng/mL Phorbol 12‐myristate 13‐acetate (PMA, Sigma‐Aldrich) for 48 h and afterwards rested for 24 h. The cell lines were cultured at 37 °C in a humidified atmosphere of 5 % CO2 and 95 % air and were regularly tested negative for mycoplasma contamination (VenorGeM Classic Mycoplasma PCR detection kit, Minerva Biolabs, Berlin, Germany).
(§3) Cell stimulation: HEK‐Blue hTLR2 cells (4×10^4 cells/well) and THP‐1 macrophages (2×10^5 cells/well) were cultured in 96‐well plates and 24‐well plates (TPP, Trasadingen, Switzerland). After cells were washed with phosphate‐buffered saline (PBS, Sigma‐Aldrich), cell stimulation was done in OptiMEM (ThermoFisher Scientific). The tested compounds and CU‐CPT22 (50 mM) were dissolved in DMSO. Final DMSO concentrations in cell culture were below 0.2 % (v/v). […] For co‐stimulation of TLR2 agonists and tested modulators, cells were preincubated with the compounds or CU‐CPT22 for 1 h and afterwards stimulated with the agonists.
(§4) Statistical analysis: Data of the bar charts are shown as mean+SD. Potency (IC50) data are presented as mean with the confidence interval (95 %). Statistical analysis was done by using GraphPad Prism 6.0 (GraphPad software, San Diego, USA). Nonlinear regression was used to plot and analyze concentration‐response curves and to obtain IC50 values.

Data set [2] has as its target T2, TLR2/6 (Homo sapiens, UniProt O60603).
T2 construct: host or cells: HEK-Blue hTLR2 cells
The experiment in a line: TLR2/6 (Pam2CSK4)-induced NF-κB/AP-1 SEAP reporter in HEK-Blue hTLR2 cells. As to conditions: for TLR2-mediated NF-κB activation in primary screen, TLR2/6 (in words) / IC50: Pam2CSK4 1 ng/mL; for TLR2-mediated NF-κB activation in primary screen, TLR2/6 (in words): Figure 3A; for IC50: HEK-Blue hTLR2 cells, n=3, 95 % confidence interval in brackets; for Pam2CSK4-induced TLR2/6 response (remaining): compound at 50 μM, 1 h pre-incubation, Pam2CSK4 1 ng/mL 24 h. The format is cell-based. As to the method:
as §1, §2, §3, §4

Data set [3] has as its target T3, TLR2 (Homo sapiens, UniProt O60603).
T3 construct: host or cells: HEK-Blue hTLR2 cells
The experiment in a line: Agonistic TLR2 activity, SEAP production in HEK-Blue hTLR2 cells. The format is cell-based. As to conditions: compounds alone for 24 h, SEAP OD 640 nm. Here is the method: as §2
(§5) 1.1 Supplementary Figure 1: Agonistic activity and cell viability […]
up to 50 µM. (A) HEK-Blue hTLR2 cells were stimulated with Pam3CSK4 (10 ng/ml) or the compounds 1-9 for 24 h. SEAP production was detected by QUANTI-Blue as OD at 640 nm. (B) HEK-Blue hTLR2 cells were stimulated with DMSO (10% v/v) or the compounds for 24 h. Cell viability was determined by MTT assay and normalized to unstimulated cells (dashed line). Mean +SD (n=3). […]

Data set [4] concerns HEK-Blue hTLR2 cells. Description: Cell viability by MTT assay. As to conditions: 24 h. The format is cell-based, human. As to the method:
Cell viability: Cell viability was assessed by the MTT assay in HEK Blue hTLR2 cells as previously described.14 10 % (v/v) DMSO (Carl Roth) served as control and the viability of untreated cells was defined as 100 %.
as §5
up to 50 µM. (A) HEK-Blue hTLR2 cells were stimulated with Pam3CSK4 (10 ng/ml) or the compounds 1-9 for 24 h. SEAP production was detected by QUANTI-Blue as OD at 640 nm. (B) HEK-Blue hTLR2 cells were stimulated with DMSO (10% v/v) or the compounds for 24 h. Cell viability was determined by MTT assay and normalized to unstimulated cells (dashed line). Mean +SD (n=3).
(1 picture or pasted object on this page, not shown here)
(Tetrazolium dyes change colour on reduction, which living cells bring about.)

The nature of data set [5]: Chemical stability toward oxidation. The format is physicochemical. As to conditions: aerobic conditions; 7 and 8 on debenzylation of the protected intermediates. The text has this:
Aromatic ketone 5, in which the amide linker between two benzene rings is replaced by a ketomethylene unit, was obtained via the direct C‐acylation of resorcinol (1,3‐diphenol) with 3,4‐dimethoxy‐phenyl acetic acid using boron trifluoride diethyl etherate as the activating Lewis acid in 19 % yield. Compounds 1–6 were isolated with >95 % purity by column chromatography. Synthesis of the trihydroxy‐derivatives, ethyl 3‐(2,3,4‐trihydroxy‐benzamido)benzoate 7 and ethyl 3‐(3,4,5‐trihydroxy‐benzamido)benzoate 8 was attempted following the same strategy as in Scheme 2. […] 7 and 8 therefore could not be isolated and tested biologically.

In data set [6] the test system is other TLR subtypes. Description: IL-8 secretion (ELISA) in THP-1 macrophages stimulated with agonists of other TLRs. The format is cell-based, human. As to conditions: LPS, flagellin, CL075 or ODN2006 for 24 h. Here is the method:
as §1, with “C) THP‐1 macrophages were incubated with CU‐CPT22 (25 μM) or compound 6 for 1 h and afterwards stimulated with Pam3CSK4 (10 ng/mL), Pam2CSK4 (1ng/mL), LPS (10 ng/mL), flagellin (1 μg/mL), CL075 (8 μM) or ODN2006 (5 μM) for 24 h.” left out, “Mean+SD or ±SD (n=3).” left out
Cell culture: Human embryonic kidney (HEK)‐Blue hTLR2 cells (InvivoGen, Touluse, France) were used from passage 5 to 20. […] The enzyme transforms the substrate QUANTI‐Blue (InvivoGen) into a blue dye that was detected by optical density (OD) at 640 nm as previously described.11a, 12 THP‐1 cells (DSMZ, Braunschweig, Germany) from passage 10 to 15 were cultured as previously reported.13 For the generation of THP‐1 macrophages, THP‐1 monocytes were first incubated with 25 ng/mL Phorbol 12‐myristate 13‐acetate (PMA, Sigma‐Aldrich) for 48 h and afterwards rested for 24 h. […]
ELISA: Commercially available ELISA kits were used for detecting human IL‐8 levels in cell culture supernatants (ELISA‐Ready Set Go, Invitrogen by Thermo Fisher Scientific).
(ELISA stands for enzyme-linked immunosorbent assay.)

T1 sequence (O60603 21-784): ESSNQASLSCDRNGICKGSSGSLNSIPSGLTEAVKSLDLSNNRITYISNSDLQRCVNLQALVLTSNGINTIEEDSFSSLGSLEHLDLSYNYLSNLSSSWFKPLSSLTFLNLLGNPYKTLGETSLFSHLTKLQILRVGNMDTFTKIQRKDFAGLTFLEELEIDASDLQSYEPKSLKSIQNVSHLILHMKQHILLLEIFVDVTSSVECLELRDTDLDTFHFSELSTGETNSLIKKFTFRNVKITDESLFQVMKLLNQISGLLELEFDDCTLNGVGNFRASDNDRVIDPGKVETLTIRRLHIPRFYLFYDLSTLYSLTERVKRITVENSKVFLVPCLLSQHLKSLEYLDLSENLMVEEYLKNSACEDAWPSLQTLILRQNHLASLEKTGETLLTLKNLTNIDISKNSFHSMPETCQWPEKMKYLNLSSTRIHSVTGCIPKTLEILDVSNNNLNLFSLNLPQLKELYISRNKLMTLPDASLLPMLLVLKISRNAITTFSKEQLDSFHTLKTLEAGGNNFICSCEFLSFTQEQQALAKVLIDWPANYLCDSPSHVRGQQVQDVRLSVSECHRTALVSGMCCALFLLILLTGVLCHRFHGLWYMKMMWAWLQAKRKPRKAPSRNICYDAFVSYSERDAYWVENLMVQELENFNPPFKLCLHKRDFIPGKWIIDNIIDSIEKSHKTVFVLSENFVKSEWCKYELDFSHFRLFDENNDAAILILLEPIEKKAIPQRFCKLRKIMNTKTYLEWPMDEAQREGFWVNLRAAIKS
T2 sequence (O60603 21-784): as above
T3 sequence (O60603 21-784): as above

Turning to `CCOC(=O)c1cccc(NC(=O)c2ccc(O)cc2O)c1` [Compound 1, Ethyl 3‐(2,4‐dihydroxy‐benzamido)benzoate], in data set [1], the “TLR2-mediated NF-κB activation in primary screen, TLR2/1 (in words)” value is given as “Except for 1, all selected compounds decreased”. The “TLR2-mediated NF-κB activation in primary screen, TLR2/6 (in words)” value in data set [2] is given as “Except for 1, all selected compounds decreased”.
For orientation: IC50 means the midpoint of a concentration-inhibition curve. The low end stands for greater potency, the high end for weaker potency. For the compound `CCOC(=O)c1cccc(NC(=O)Cc2ccc(OC)c(OC)c2)c1` [Compound 4, Ethyl 3‐(2‐(3,4‐dimethoxyphenyl)acetamido)benzoate], the figures for the IC50 in data set [1] and in data set [2] were 44.9 µM and 61.9 µM, respectively. Besides, the “Pam3CSK4-induced TLR2/1 response (remaining)” value in data set [1] was “less than 40%”.
Turning to `CCOC(=O)c1cccc(NC(=O)c2cc(O)cc(O)c2)c1` [Compound 6, Ethyl 3‐(3,5‐dihydroxy‐benzamido)benzoate], in data set [1], the IC50 stood at 15.4 µM; the “Pam3CSK4-induced TLR2/1 response (remaining)” value is on record as “less than 40%”; the “TLR2-mediated NF-κB activation in primary screen, TLR2/1 (in words)” value is “abrogated the TLR2 response of both heterodimers almost completely”. Besides, in data set [3], the “agonistic TLR2 activity” value was “no agonistic activity”. Besides, in data set [2], the IC50 is 13.6 µM and the “TLR2-mediated NF-κB activation in primary screen, TLR2/6 (in words)” value was “abrogated the TLR2 response of both heterodimers almost completely”. For the same compound, in data set [4], the “cytotoxic effects / cell viability (in words)” value was “nontoxic” and the “lowest concentration reducing cell viability” value was over 50 µM. For the same compound, the “chemical stability / sensitivity to oxidation” value in data set [5] was “chemically stable”. Moreover, the “influence on other TLR subtypes (IL-8 secretion)” value in data set [6] was “no influence on other TLR subtypes”.
In the case of `CCOC(=O)c1cccc(NC(=O)c2ccc(O)c(O)c2O)c1` [Compound 7, ethyl 3‐(2,3,4‐trihydroxy‐benzamido)benzoate], in data set [5], the “chemical stability / sensitivity to oxidation” value was “instantaneous decomposition”.
On the same count and under the same terms, the entry for `CCOC(=O)c1cccc(NC(=O)c2cc(O)c(O)c(O)c2)c1` [Compound 8, ethyl 3‐(3,4,5‐trihydroxy‐benzamido)benzoate] is “instantaneous decomposition”.
In the case of `COC(=O)c1ccc(CC(=O)c2ccc(O)cc2O)o1` [Compound 9], in data set [1], the IC50 stood at 42.4 µM and the “Pam3CSK4-induced TLR2/1 response (remaining)” value was “less than 40%”. In data set [2], the IC50 turned out to be 42.9 µM and the “Pam2CSK4-induced TLR2/6 response (remaining)” value is listed as “less than 50%”.
Regarding `CCOC(=O)c1ccc(CC(=O)c2c(C)cc(O)cc2O)o1` [Compound 10], in data set [1], the IC50 was determined as 44 µM and the “Pam3CSK4-induced TLR2/1 response (remaining)” value is on record as “less than 40%”. In data set [2], the IC50 turned out to be 40.7 µM and the “Pam2CSK4-induced TLR2/6 response (remaining)” value is given as “less than 50%”.
`CCCc1cc(C(=O)Cc2ccc(C(=O)OCC)o2)c(O)cc1O` [Compound 11]: the “TLR2-mediated NF-κB activation in primary screen, TLR2/1 (in words)” value in data set [1] is “abrogated the TLR2 response of both heterodimers almost completely”. For the same compound, the “TLR2-mediated NF-κB activation in primary screen, TLR2/6 (in words)” value in data set [2] was “abrogated the TLR2 response of both heterodimers almost completely”. In data set [4], the “cytotoxic effects / cell viability (in words)” value is “cytotoxic” and the “lowest concentration reducing cell viability” value worked out at 50 µM.
